Laboratory results published in patent US7223865B2, “Chromogenic compounds, and use thereof as enzyme substrates” (Biomerieux, priority 2003, dated 2007).

Assays:
Assay type in all cases: cell-based
[1] = tested on: Staphylococcus aureus (NCTC 6571); assay: t-BOC-L-alanyl-L-alanyl-L-alanyl-peptidase activity on gelled medium, Example 11; parameters: key: ++ means good growth; + means moderate growth; +/− means poor growth; NG means no growth
Description: (§1) A gelled medium comprising this substrate is prepared as follows: 30 mg of the substrate are dissolved (heating) in 10 ml of sterile distilled water. Ten ml of this solution are then added to 90 ml of Columbia agar, kept molten at 50° C.
(§2) Various strains of microorganisms derived from the NCTC collection (National Collection of Type Cultures, Colindale, UK) were seeded onto the media thus obtained according to the multipoint inoculation described in example 8 above.
(§3) The colonies formed were examined visually after incubation for 24 h and 48 h. The color and the growth of these colonies were noted.

[2] = tested on: Enterococcus faecalis (NCTC 755); assay: as above; parameters: key: ++ means good growth; + means moderate growth; +/− means poor growth; NG means no growth
Description: as §1, §2, §3

[3] = tested on: Salmonella poona (NCTC 4840); assay: as above; parameters: key to growth: ++ means good growth; + means moderate growth; +/− means poor growth; NG means no growth
Description: as §1, §2, §3

[4] = tested on: Staphylococcus aureus (NCTC 11939); assay: as above; parameters: key to growth: ++ means good growth; + means moderate growth; +/− means poor growth; NG means no growth
Description: as §1, §2, §3

[5] = tested on: Escherichia coli O157 (NCTC 12079); assay: as above; parameters: key to growth: ++ means good growth; + means moderate growth; +/− means poor growth; NG means no growth
Description: as §1, §2, §3

[6] = tested on: Pseudomonas aeruginosa (NCTC 10662); assay: as above; parameters: key to growth: ++ means good growth; + means moderate growth; +/− means poor growth; NG means no growth
Description: as §1, §2, §3

[7] = tested on: Burkholderia cepacia (NCTC 10743); assay: as above; parameters: key to growth: ++ means good growth; + means moderate growth; +/− means poor growth; NG means no growth
Description: as §1, §2, §3

[8] = tested on: Listeria monocytogenes (NCTC 11994); assay: as above; parameters: key to growth: ++ means good growth; + means moderate growth; +/− means poor growth; NG means no growth
Description: as §1, §2, §3

[9] = tested on: Enterobacter cloacae (NCTC 11936); assay: as above; parameters: key to growth: ++ means good growth; + means moderate growth; +/− means poor growth; NG means no growth
Description: as §1, §2, §3

[10] = tested on: Serratia marcescens (NCTC 10211); assay: as above; parameters: key to growth: ++ means good growth; + means moderate growth; +/− means poor growth; NG means no growth
Description: as §1, §2, §3

[11] = tested on: Salmonella typhimurium (NCTC 74); assay: as above; parameters: key to growth: ++ means good growth; + means moderate growth; +/− means poor growth; NG means no growth
Description: as §1, §2, §3

[12] = tested on: Shigella sonnei (NCTC 9774); assay: as above; parameters: key to growth: ++ means good growth; + means moderate growth; +/− means poor growth; NG means no growth
Description: as §1, §2, §3

[13] = tested on: Klebsiella pneumonia (NCTC 10896); assay: as above; parameters: key to growth: ++ means good growth; + means moderate growth; +/− means poor growth; NG means no growth
Description: as §1, §2, §3

[14] = tested on: Enterococcus faecalis (NCTC 12697); assay: as above; parameters: key to growth: ++ means good growth; + means moderate growth; +/− means poor growth; NG means no growth
Description: as §1, §2, §3

[15] = tested on: Enterococcus faecium (NCTC 7171); assay: as above; parameters: key to growth: ++ means good growth; + means moderate growth; +/− means poor growth; NG means no growth
Description: as §1, §2, §3

[16] = tested on: Escherichia coli (NCTC 14018); assay: glycine-aminopeptidase activity on gelled medium, Example 10; parameters: key: ++ means good growth; + means moderate growth; +/− means poor growth; NG means no growth
Description: as §1, §2, §3

[17] = tested on: Staphylococcus aureus (NCTC 6571); assay: as above; parameters: key: ++ means good growth; + means moderate growth; +/− means poor growth; NG means no growth
Description: as §1, §2, §3

[18] = tested on: Enterococcus faecalis (NCTC 755); assay: as above; parameters: key: ++ means good growth; + means moderate growth; +/− means poor growth; NG means no growth
Description: as §1, §2, §3

[19] = tested on: Salmonella poona (NCTC 4840); assay: as above; parameters: key to growth: ++ means good growth; + means moderate growth; +/− means poor growth; NG means no growth
Description: as §1, §2, §3

[20] = tested on: Staphylococcus aureus (NCTC 11939); assay: as above; parameters: key to growth: ++ means good growth; + means moderate growth; +/− means poor growth; NG means no growth
Description: as §1, §2, §3

[21] = tested on: Escherichia coli O157 (NCTC 12079); assay: as above; parameters: key to growth: ++ means good growth; + means moderate growth; +/− means poor growth; NG means no growth
Description: as §1, §2, §3

[22] = tested on: Pseudomonas aeruginosa (NCTC 10662); assay: as above; parameters: key to growth: ++ means good growth; + means moderate growth; +/− means poor growth; NG means no growth
Description: as §1, §2, §3

[23] = tested on: Burkholderia cepacia (NCTC 10743); assay: as above; parameters: key to growth: ++ means good growth; + means moderate growth; +/− means poor growth; NG means no growth
Description: as §1, §2, §3

[24] = tested on: Listeria monocytogenes (NCTC 11994); assay: as above; parameters: key to growth: ++ means good growth; + means moderate growth; +/− means poor growth; NG means no growth
Description: as §1, §2, §3

[25] = tested on: Enterobacter cloacae (NCTC 11936); assay: as above; parameters: key to growth: ++ means good growth; + means moderate growth; +/− means poor growth; NG means no growth
Description: as §1, §2, §3

[26] = tested on: Serratia marcescens (NCTC 10211); assay: as above; parameters: key to growth: ++ means good growth; + means moderate growth; +/− means poor growth; NG means no growth
Description: as §1, §2, §3

[27] = tested on: Salmonella typhimurium (NCTC 74); assay: as above; parameters: key to growth: ++ means good growth; + means moderate growth; +/− means poor growth; NG means no growth
Description: as §1, §2, §3

[28] = tested on: Shigella sonnei (NCTC 9774); assay: as above; parameters: key to growth: ++ means good growth; + means moderate growth; +/− means poor growth; NG means no growth
Description: as §1, §2, §3

[29] = tested on: Klebsiella pneumonia (NCTC 10896); assay: as above; parameters: key to growth: ++ means good growth; + means moderate growth; +/− means poor growth; NG means no growth
Description: as §1, §2, §3

[30] = tested on: Enterococcus faecalis (NCTC 12697); assay: as above; parameters: key to growth: ++ means good growth; + means moderate growth; +/− means poor growth; NG means no growth
Description: as §1, §2, §3

[31] = tested on: Enterococcus faecium (NCTC 7171); assay: as above; parameters: key to growth: ++ means good growth; + means moderate growth; +/− means poor growth; NG means no growth
Description: as §1, §2, §3

With `C[C@H](NC(=O)OC(C)(C)C)C(=O)N[C@@H](C)C(=O)N[C@@H](C)C(=O)Nc1ccc(-c2c3ccccc3[n+](C)c3ccccc23)cc1.[Cl-]` [t-BOC-L-Ala-Ala-Ala-4-AP-10-MA, t-BOC-L-alanyl-L-alanyl-L-alanyl-9-(4-aminophenyl)-10-methylacridine] the growth ([1]; 24 h) was “NG”, the growth ([1]; 48 h) was “NG” and the growth ([2]; 24 h) was “NG”. The growth ([2]; 48 h) was “NG”, the color of colonies ([3]; 24 h) was “Pale orange” and the growth ([3]; 24 h) was “(++)”. The color of colonies ([3]; 48 h) was “Pale orange”, the growth ([3]; 48 h) was “++” and the color of colonies ([4]; 24 h) was “Colorless”. The growth ([4]; 24 h) was “+”, the color of colonies ([4]; 48 h) was “Colorless” and the growth ([4]; 48 h) was “+”. The color of colonies ([5]; 24 h) was “Pale orange”, the growth ([5]; 24 h) was “(++)” and the color of colonies ([5]; 48 h) was “Pale orange”. The growth ([5]; 48 h) was “++”, the color of colonies ([6]; 24 h) was “Pale orange” and the growth ([6]; 24 h) was “(++)”. For the same compound, the color of colonies ([6]; 48 h) was “Pale Orange”, the growth ([6]; 48 h) was “++” and the color of colonies ([7]; 24 h) was “Orange”. The growth ([7]; 24 h) was “++”, the color of colonies ([7]; 48 h) was “Orange” and the growth ([7]; 48 h) was “++”. For the same compound, the color of colonies ([8]; 24 h) was “Colorless”, the growth ([8]; 24 h) was “+/−” and the color of colonies ([8]; 48 h) was “Colorless”. The growth ([8]; 48 h) was “+”, the color of colonies ([9]; 24 h) was “Orange” and the growth ([9]; 24 h) was “++”. For the same compound, the color of colonies ([9]; 48 h) was “Orange”, the growth ([9]; 48 h) was “++” and the color of colonies ([10]; 24 h) was “Orange”. For the same compound, the growth ([10]; 24 h) was “++”, the color of colonies ([10]; 48 h) was “Orange” and the growth ([10]; 48 h) was “++”. The color of colonies ([11]; 24 h) was “Pale orange”, the growth ([11]; 24 h) was “(++)” and the color of colonies ([11]; 48 h) was “Pale orange”. The growth ([11]; 48 h) was “++”, the color of colonies ([12]; 24 h) was “Pale orange” and the growth ([12]; 24 h) was “(++)”. The color of colonies ([12]; 48 h) was “Pale orange”, the growth ([12]; 48 h) was “++” and the color of colonies ([13]; 24 h) was “Orange”. For the same compound, the growth ([13]; 24 h) was “++”, the color of colonies ([13]; 48 h) was “Orange” and the growth ([13]; 48 h) was “++”. For the same compound, the color of colonies ([14]; 24 h) was “Colorless”, the growth ([14]; 24 h) was “+/−” and the color of colonies ([14]; 48 h) was “Colorless”. The growth ([14]; 48 h) was “+/−”, the color of colonies ([15]; 24 h) was “Colorless” and the growth ([15]; 24 h) was “+/−”. The color of colonies ([15]; 48 h) was “Colorless” and the growth ([15]; 48 h) was “++”.

`C[n+]1c2ccccc2c(-c2ccc(NC(=O)CN)cc2)c2ccccc21.[Cl-]` [G-4-AP-10-MA, glycyl-9-(4-aminophenyl)-10-methylacridine] was tested, and the growth ([16]; 24 h) was “NG”, the growth ([16]; 48 h) was “NG” and the growth ([17]; 24 h) was “NG”. For the same compound, the growth ([17]; 48 h) was “NG”, the growth ([18]; 24 h) was “NG” and the growth ([18]; 48 h) was “NG”. The color of colonies ([19]; 24 h) was “Orange”, the growth ([19]; 24 h) was “++” and the color of colonies ([19]; 48 h) was “Orange”. The growth ([19]; 48 h) was “++”, the color of colonies ([20]; 24 h) was “Colorless” and the growth ([20]; 24 h) was “+”. The color of colonies ([20]; 48 h) was “Colorless”, the growth ([20]; 48 h) was “+” and the color of colonies ([21]; 24 h) was “Orange”. For the same compound, the growth ([21]; 24 h) was “++”, the color of colonies ([21]; 48 h) was “Orange” and the growth ([21]; 48 h) was “++”. The color of colonies ([22]; 24 h) was “Pale orange”, the growth ([22]; 24 h) was “(++)” and the color of colonies ([22]; 48 h) was “Orange”. For the same compound, the growth ([22]; 48 h) was “++”, the color of colonies ([23]; 24 h) was “Orange” and the growth ([23]; 24 h) was “++”. The color of colonies ([23]; 48 h) was “Orange”, the growth ([23]; 48 h) was “++” and the color of colonies ([24]; 24 h) was “Colorless”. For the same compound, the growth ([24]; 24 h) was “+”, the color of colonies ([24]; 48 h) was “Colorless” and the growth ([24]; 48 h) was “+”. For the same compound, the color of colonies ([25]; 24 h) was “Orange”, the growth ([25]; 24 h) was “++” and the color of colonies ([25]; 48 h) was “Orange”. For the same compound, the growth ([25]; 48 h) was “++”, the color of colonies ([26]; 24 h) was “Orange” and the growth ([26]; 24 h) was “++”. The color of colonies ([26]; 48 h) was “Orange”, the growth ([26]; 48 h) was “++” and the color of colonies ([27]; 24 h) was “Pale orange”. The growth ([27]; 24 h) was “(++)”, the color of colonies ([27]; 48 h) was “Pale orange” and the growth ([27]; 48 h) was “++”. For the same compound, the color of colonies ([28]; 24 h) was “Orange”, the growth ([28]; 24 h) was “++” and the color of colonies ([28]; 48 h) was “Orange”. For the same compound, the growth ([28]; 48 h) was “++”, the color of colonies ([29]; 24 h) was “Orange” and the growth ([29]; 24 h) was “++”. The color of colonies ([29]; 48 h) was “Orange”, the growth ([29]; 48 h) was “++” and the color of colonies ([30]; 24 h) was “Colorless”. The growth ([30]; 24 h) was “+”, the color of colonies ([30]; 48 h) was “Colorless” and the growth ([30]; 48 h) was “+”. The color of colonies ([31]; 24 h) was “Colorless”, the growth ([31]; 24 h) was “+” and the color of colonies ([31]; 48 h) was “Colorless”. For the same compound, the growth ([31]; 48 h) was “+”.
